Laboratory results published in US20130289019A1, “METHODS OF TREATING BEHAVIORIAL AND/OR MENTAL DISORDERS” (AMAZING GRACE, INC., priority 2012, published 2013).

System: rats (NAc infusion)
Test: swim test scores during bilateral fluoxetine infusion in the NAc
Format: in vivo, rat

For `CNCCC(Oc1ccc(C(F)(F)F)cc1)c1ccccc1` (centres unmarked) [Fluoxetine], the “Swimming + Climbing (total escape attempts), FLU” value (“Swimming + Climbing” for short) (0.2 mM bilateral in NAc, fluoxetine on Day 2 (Ringer Day 3)) was 54 ± 30, the “Swimming + Climbing” value (0.2 mM bilateral in NAc, fluoxetine on Day 3 (Ringer Day 2)) was 74 ± 13 and the “Swimming + Climbing” value (0.2 mM bilateral in NAc, on Day 2 or Day 3 (combined)) was 66 ± 12. For the same compound, the “Swimming + Climbing” value (0.5 mM bilateral in NAc, fluoxetine on Day 2 (Ringer Day 3)) was 51 ± 9, the “Swimming + Climbing” value (0.5 mM bilateral in NAc, fluoxetine on Day 3 (Ringer Day 2)) was 81 ± 9 and the “Swimming + Climbing” value (0.75 mM bilateral in NAc, fluoxetine on Day 2 (Ringer Day 3)) was 58 ± 11. The “Swimming + Climbing” value (0.75 mM bilateral in NAc, fluoxetine on Day 3 (Ringer Day 2)) was 73 ± 11 and the “Swimming + Climbing” value (0.75 mM bilateral in NAc, on Day 2 or Day 3 (combined)) was 67 ± 7.
